One experiment addresses T1, p38β MAP kinase (Homo sapiens, UniProt Q15759).
T1 construct: purchased Upstate Biotechnology/Millipore
As to the kind of experiment: Inhibition of p38β MAP kinase enzyme activity. It counts as biochemical. The following applies: 20 μM ATP. The procedure:
The kinase reaction buffer is prepared essentially as described above. The substrate mix is prepared by combining the following: 2840 μL Kinase Reaction Buffer, 15.0 μL ATP at 10 mM, 125 μL EGFR peptide at 4 mM (9.174 mg/ml), 18.75 μL ^33P-ATP. The p38β MAP kinase enzyme stock solution is prepared by diluting 2.25 μL of a 0.57 mg/mL solution of commercial p38β MAP kinase (Upstate Biotechnology/Millipore) in 2000 μL of reaction buffer. Stock solutions of test compounds are generated essentially as described above.
The kinase assay is performed essentially as described for p38α MAP kinase. Final reaction conditions are as follows: 25 mM HEPES pH 7.5, 4.25 mM MgCl2, 1.30 mM DTT, 0.004% TRITON® X-100, 20 μM ATP, 65 μM EGFR peptide, 0.25 ng/μL p38β MAP kinase, 4% DMSO. […] For example, Example 1 has an IC50=0.007 μM.

In experiment [1] the test system is p38 MAP kinase. As to the kind of experiment: Inhibition of p38 MAP kinase in the cell-based assay (p-MAPKAPK2 cELISA, TNFα-stimulated HeLa cells). As to conditions: Homo sapiens, TNFα stimulation, read-out: Relative IC50.
Experiment [2] deals with p38 MAP kinase. As to the kind of experiment: In vivo target inhibition (IVTI) of p38 MAP kinase in naïve C57BL/6 mice (p-MAPKAPK2 in PBMCs, flow cytometry). The following applies: 2 hours post-dose. The procedure: IVTI of p38 MAP kinase is measured in peripheral blood mononuclear cells (PBMCs) of mice dosed orally with test compound using a flow cytometry assay for p-MAPKAPK2, a p38 MAP kinase substrate.
Male C57BL/6 mice (6-8 weeks old) are randomized into groups of 4. Test compound is administered by oral gavage in a 0.1 mL volume of vehicle (1% hydroxyethyl cellulose (HEC), 0.25% TWEEN® 80, 0.05% antifoam). Control animals are administered 0.1 mL vehicle with no test compound. For single dose and dose response studies, animals are sacrificed 2 hour post-dose. For time-course studies, animals are sacrificed at different time-points post-dose, typically, 1, 2, 4, 6, 18 and 24 hours. Whole blood is collected in EDTA-coated tubes (AQUISEL).
100 μL mouse whole blood is added into each EDTA tube and incubated at 37° C. for 10 minutes. […]
Samples are incubated at RT for 30 minutes. […] Samples are analyzed by flow cytometry (FACScaliber, BD). After defining the viable single cell population by side and forward scatter, the level of p-MAPKAPK2 is measured in the monocyte population defined (gated) by CD11b^hiLy6G^−.
The median fluorescence intensity in the monocyte cells is analyzed to determine the level of p-MAPKAPK2. […] Percent inhibition by test compound is determined by using the following equation: […]

Several values for one entry are separate records, joined by “and”; a condition that tells them apart may be missing. Equal values may be shown once.

T1 sequence (Q15759 whole entry): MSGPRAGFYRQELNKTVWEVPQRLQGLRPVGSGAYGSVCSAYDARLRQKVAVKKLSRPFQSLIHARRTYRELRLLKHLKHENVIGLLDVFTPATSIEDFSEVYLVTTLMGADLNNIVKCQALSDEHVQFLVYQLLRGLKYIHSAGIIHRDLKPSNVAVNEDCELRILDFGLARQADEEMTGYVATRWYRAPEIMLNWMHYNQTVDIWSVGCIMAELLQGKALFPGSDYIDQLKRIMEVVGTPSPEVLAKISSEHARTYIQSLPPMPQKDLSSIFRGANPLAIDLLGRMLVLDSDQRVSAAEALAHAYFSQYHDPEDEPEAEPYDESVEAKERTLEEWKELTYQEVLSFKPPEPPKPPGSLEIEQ

One may read the IC50 as the concentration that inhibits the measured activity by half. Consider `COCC[C@H](C)Nc1nc2ccc(-c3nc(C(C)(C)CO)[nH]c3-c3ccc(F)cc3F)nc2o1` [Example 1, 2-[5-(2,4-Difluorophenyl)-4-[2-[[(1S)-3-methoxy-1-methyl-propyl]amino]oxazolo[5,4-b]pyridin-5-yl]-1H-imidazol-2-yl]-2-methyl-propan-1-ol], for which the IC50 against p38β MAP kinase worked out at 7 nM; with p38 MAP kinase [1], 1.6 nM. Moreover, the “Threshold Efficacious Dose for 70% inhibition (TED70)” value with p38 MAP kinase [2] (oral, PBMCs) is 5.1 mg/kg. Moreover, the “Threshold Efficacious Concentration for 70% inhibition (TEC70)” value in the experiment with p38 MAP kinase [2] (plasma) was 39.4 ng/mL and 0.084 μM.

The values above are taken from US8288548B2, “Oxazolo[5-4-b]pyridin-5-yl compounds” (Eli Lilly and Company, priority 2010, dated 2012).
